Laboratory results reported in PMC4640567, “Cinnamic Acid Bornyl Ester Derivatives from Valeriana wallichii Exhibit Antileishmanial In Vivo Activity in Leishmania major-Infected BALB/c Mice” (PLoS ONE, 2015).
Several values for one entry are separate records, joined by “and”; a condition that tells them apart may be missing. Equal entries are not always repeated.

Legend:
L. donovani = assay: Preliminary studies in L. donovani infected BALB/c mice; type: in vivo; conditions: need further evaluation
L. major promastigotes [1] = assay: Transmission electron microscopy, mitochondrial swelling; type: cell-based, Leishmania major; conditions: 100 μM, 2 h
Method: (§1) L. major parasites harvested from blood agar cultures were washed twice with Dulbecco’s phosphate-buffered saline (DPBS; Invitrogen, Darmstadt, Germany) and centrifuged at 3.000 × g for 10 min. The pellet was suspended in RPMI 1640 medium at a final concentration of 1 × 10^8 cells/ml. Cells were treated with 1% DMSO, 122.7 μM miltefosine (1-hexadecylphorylcholine; apoptosis inducer), or 100 μM of the tested compounds 1 and 2 in a final volume of 200 μl in 96 well plates. Samples were incubated at 27°C in 5% CO2 for several time points between 30 min and 24 h. Transmitted light microscopic, transmission electron microscopic (TEM), and flow cytometric techniques were used to find phenotypic patterns caused by the treatment with the tested compounds.
L. major promastigotes were incubated for 2 h in the presence of DMSO, 100 μM of compound 1 and compound 2, respectively. After the incubation period, the parasites were harvested, contrasted and embedded following the procedure described previously. Ultrathin sections were mounted on 300-mesh grids, stained with uranyl acetate and lead citrate, and analyzed with an EM 10 transmission electron microscope (Carl Zeiss AG, Oberkochen, Germany). To describe morphological changes in a statistical manner, six photographs with approximately 50 cells were taken and the percentage of cells with swollen mitochondria per treatment was determined.

[2] = AlamarBlue cytotoxicity, HepG2 cells; type: cell-based; conditions: human, read-out: Cytotoxicity (μM) HEP G2
Method: (§2) BMDM were generated in complete RPMI medium as described previously. On day six, the cytotoxicity against 2 × 10^5 cells/ml was tested at increasing concentrations of compounds 1 and 2 for 48 h. Human embryonic kidney HEK 293 T cells (ATCC, Wesel, Germany) were cultured in Dulbecco´s Modified Eagle Medium (DMEM) (Life Technologies, Darmstadt, Germany), with 10% FCS (PAA Laboratories, Germany). According to the standard operating procedures (SOP) within the Collaborative Research Center 630 (SFB 630) 2 × 10^4 HEK 293 T cells/ml were tested at increasing concentrations of compounds 1 and 2 for 48 h. Human liver carcinoma HepG2 cells (ATCC) were cultured in RPMI medium (Gibco) with 10% FCS. 1 × 10^5 cells/ml HepG2 were tested at increasing concentrations of 1 and 2 for 72 h according to the SOPs. The AlamarBlue assay was performed as described above for L. major parasites.

L. major promastigotes [3] = assay: Annexin V / propidium iodide flow cytometry, cell death phenotype; type: cell-based, Leishmania major; conditions: 100 μM
Method: as §1
The loss of membrane integrity and translocation of phosphatidylserine (PS) to the outside of the cellular membrane can be determined by annexin V (AV) and propidium iodide (PI) staining. Double staining with AV-fluorescein isothiocyanate (FITC) and PI during flow cytometry analysis leads to discrimination between four populations: double negatives or alive cells (AV^-/PI^-), double positive or late necrotic/late apoptotic cells (AV^+/PI^+), PI-positive and AV-negative or early necrotic cells (AV^-/PI^+), and PI-negative and AV-positive or early apoptotic cells (AV^+/PI^-).
Parasites were harvested after incubation for 6 h, 10 h, and 24 h in the presence of compounds 1, 2 and miltefosine (Cayman Chemical Company, MI, USA), respectively, the latter serving as positive control for the induction of apoptotic cell death. DMSO was used as solvent control. Cell staining was performed using an AV-FITC Apoptosis detection kit (Sigma-Aldrich, Saint Louis, MO, USA). Cells were harvested, washed and suspended in 500 μL of binding buffer, 5 μL of AV-FITC and 10 μl of PI. The cells were incubated for 10 min in the dark at RT. Finally, stained samples were immediately analyzed by flow cytometry using MACSQuant analyzer or a flow cytometer (Becton Dickinson, San José, CA, USA).

[4] = AlamarBlue cytotoxicity, BMDM; type: cell-based; conditions: bone marrow-derived macrophages (BMDM)
Method: as §2

[5] = AlamarBlue cytotoxicity, HEK 293 T cells; type: cell-based; conditions: human
Method: as §2

L. major amastigotes = assay: microbe, parasite or virus in culture; type: cell-based; conditions: Leishmania major; intracellular amastigotes in BMDM, 24 h; read-out: Cytotoxicity (μM) L. major amastigotes (IC50)
Method: Luciferase-transgenic (Luc-tg) L. major has been generated as described previously. The virulence of Luc-tg L. major was maintained by passage in female BALB/c mice and promastigotes were grown in vitro in blood agar cultures with addition of 50 μg/mL hygromycin B using the same conditions as described above.
A detailed protocol of antileishmanial investigations against intracellular L. major amastigotes residing within bone marrow-derived macrophages (BMDM) is described elsewhere. Briefly, 2 × 10^5/ml BMDM were infected with Luc-tg L. major promastigotes at a ratio of 1:15 for 24 h. These infected BMDM were cultured in the absence or presence of increasing concentrations of the tested compounds 1 and 2 for 24 h prior to the supplement of Britelite plus (PerkinElmer, Waltham, MA, USA) for 5 min. Britelite plus is a very sensitive assay for the quantification of firefly luciferase in Leishmania parasites. The luminescence was measured using a Victor X Light 2030 luminometer (PerkinElmer, Waltham, MA, USA).

L. major promastigotes [6] = assay: MitoTracker Red CMXRos staining, flow cytometry; type: cell-based, Leishmania major; conditions: 100 μM
Method: L. major promastigotes were harvested from blood-agar cultures and washed twice with DPBS (900 × g for 5 min at RT). 2 × 10^6 promastigotes were dissolved in 180 μl RPMI complete medium and seeded in a 96 well plate. Parasites were incubated with 20 μL of compound 1 (final concentration: 100 μM), compound 2 (final concentration: 100 μM) and with 20 μL of DMSO, respectively, for 30 min, 45 min, 60 min, or 120 min at 27°C in a 5% CO2. After incubation 2 μl of MitoTracker Red CMXRos (final concentration: […]) (Life Technologies, Darmstadt, Germany) was added for 15 min at 27°C. Samples were directly acquired using a MACSQuant Analyzer (Miltenyi Biotech, Bergisch Gladbach, Germany) and MitoTracker-positive parasites were analyzed using MACS Quant Analyzing software.

Row | Compound | Antileishmanial in vivo activity (L. donovani) | Counted parasites with mitochondrial swelling (TEM) (L. major promastigotes [1]) [%] | IC50 at 72 h [2] [µM] | LL: live cells (AV-/PI-) (L. major promastigotes [3]; 6 h) [%] | LR: early apoptotic cells (AV+/PI-) (L. major promastigotes [3]; 6 h) [%] | UL: early necrotic cells (AV-/PI+) (L. major promastigotes [3]; 6 h) [%] | UR: necrotic/late apoptotic cells (AV+/PI+) (L. major promastigotes [3]; 6 h) [%] | LL: live cells (AV-/PI-) (L. major promastigotes [3]; 10 h) [%] | LR: early apoptotic cells (AV+/PI-) (L. major promastigotes [3]; 10 h) [%] | UL: early necrotic cells (AV-/PI+) (L. major promastigotes [3]; 10 h) [%] | UR: necrotic/late apoptotic cells (AV+/PI+) (L. major promastigotes [3]; 10 h) [%] | Induced cell death phenotype (per definition) (L. major promastigotes [3]; 24 h) | LL: live cells (AV-/PI-) (L. major promastigotes [3]; 24 h) | LR: early apoptotic cells (AV+/PI-) (L. major promastigotes [3]; 24 h) | UL: early necrotic cells (AV-/PI+) (L. major promastigotes [3]; 24 h) | UR: necrotic/late apoptotic cells (AV+/PI+) (L. major promastigotes [3]; 24 h) | IC50 at 48 h [4] [µM] | IC50 at 48 h [5] [µM] | IC50 (L. major amastigotes) [µM] | MitoTracker-positive cells, percentage of DMSO control (100%) (L. major promastigotes [6]; 60 min) [%] | also measured
1 | CC1(C)C2CCC1(C)C(OC(=O)CCc1ccccc1)C2 (single isomer, unassigned; (-)) [Compound 2, (-)-bornyl 3-phenylpropionate] | promising antileishmanial in vivo activities | 36 | > 100 | 54.4 | 8.8 | 10.7 | 26.1 | 47.2 | 9.3 | 16.8 | 26.7 | miltefosine-like cell death | 21% and 20.6% | 19% and 18.5% | 24% and 24.2% | 37% and 36.7% | > 100 | > 100 | 89.1 | 75.2 | MitoTracker-positive cells, percentage of DMSO control (100%) (L. major promastigotes [6]; 120 min): 60.2%
2 | CC1(C)C2CCC1(C)C(OC(=O)C=Cc1ccccc1)C2 (single isomer, unassigned; (-)) [Compound 1, (-)-Bornyl cinnamate] | promising antileishmanial in vivo activities | 39 | > 100 | 71.3 | 3.7 | 12.3 | 12.7 | 69.3 | 4.2 | 12.9 | 13.6 | necrotic cell death phenotype | 33% and 33.2% | 4.1% | 30% and 29.8% | 33% and 32.9% | 54.3 | 83.1 | 10.9 | 75 | MitoTracker-positive cells, percentage of DMSO control (100%) (L. major promastigotes [6]; 120 min): 63%
